The test system of data set [1] is HCV replicon RNA (GenBank Accession No. AJ242654). Put plainly: HCV Replicon Assay (replicon RNA reduction and/or Fluc reporter signal). The class given is cell-based, Hepatitis C virus. Conditions: Hepatitis C virus, 72 h, replicon-containing cells cultured with test compound for up to 3 days. The method, boiled down: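 Bicistronic replicon-containing cells cultured with compound for up to 3 days, with interferon as positive control. Inhibition quantified by replicon RNA reduction and/or Fluc reporter signal; IC50 values generally derived from replicon RNA reduction.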

SMILES strings stand for the structures.

Broadly, the melting point is the temperature of the solid-liquid transition. As a reminder, the IC50 is the point on the concentration scale where inhibition reaches its midpoint. Regarding `C[C@@H](NS(=O)(=O)c1ccc(-c2c(C#N)c3cc(Cl)ncc3n2C2CCC2)nc1)C(F)(F)F` [Cpd 104, 6-(5-chloro-3-cyano-1-cyclobutyl-1H-pyrrolo[2,3-c]pyridin-2-yl)-N-[(2R)-1,1,1-trifluoropropan-2-yl]pyridine-3-sulfonamide], the melting point was 181 to 185 °C. For the same compound, in data set [1], the IC50 is below 500 nM.
The corresponding values for `COc1cnc2c(c1)c(C#N)c(-c1ccc(S(=O)(=O)N[C@@H](C)C(F)(F)F)cn1)n2CC1CC1` [Cpd 66, 6-[3-cyano-1-(cyclopropylmethyl)-5-methoxy-1H-pyrrolo[2,3-b]pyridin-2-yl]-N-[(2S)-1,1,1-trifluoropropan-2-yl]pyridine-3-sulfonamide] are 136 to 140 °C and below 500 nM.
In turn, `Cc1cnc2c(c1)c(C#N)c(-c1ccc(S(=O)(=O)N[C@@H](C)C(F)(F)F)cn1)n2C` [Cpd 490, 6-(3-cyano-1,5-dimethyl-1H-pyrrolo[2,3-b]pyridin-2-yl)-N-[(2S)-1,1,1-trifluoropropan-2-yl]pyridine-3-sulfonamide] had a melting point of 182 to 186 °C. For the same compound, in data set [1], the IC50 lay in the range of 500 to 2000 nM.
For `Cc1cnc2c(C#N)c(-c3ccc(S(=O)(=O)NC(CF)CF)cn3)n(C3CCC3)c2c1` [Cpd 212, 6-(3-cyano-1-cyclobutyl-6-methyl-1H-pyrrolo[3,2-b]pyridin-2-yl)-N-(1,3-difluoropropan-2-yl)pyridine-3-sulfonamide], the melting point lay within 219 to 221 °C. In data set [1], this compound showed an IC50 below 500 nM.
Turning to `C[C@@H](NS(=O)(=O)c1ccc(-c2c(C#N)c3cc(C#N)cnc3n2C2CCC2)nc1)C(F)(F)F` [Cpd 107, 6-(3,5-dicyano-1-cyclobutyl-1H-pyrrolo[2,3-b]pyridin-2-yl)-N-[(2R)-1,1,1-trifluoropropan-2-yl]pyridine-3-sulfonamide], the melting point lay within 202 to 203 °C. In addition, the IC50 in data set [1] is below 500 nM.
The corresponding values for `C[C@H](NS(=O)(=O)c1cnc(-c2c(C#N)c3cc(Cl)cnc3n2C2CCC2)nc1)C(F)(F)F` [Cpd 285, 2-(5-chloro-3-cyano-1-cyclobutyl-1H-pyrrolo[2,3-b]pyridin-2-yl)-N-[(2S)-1,1,1-trifluoropropan-2-yl]pyrimidine-5-sulfonamide] are 205 to 207 °C and below 500 nM.
In turn, `CCC(NS(=O)(=O)c1ccc(-c2c(C#N)c3cc(OC)cnc3n2C2CCC2)nc1)C(F)(F)F` (stereo not shown) [Cpd 261, 6-(3-cyano-1-cyclobutyl-5-methoxy-1H-pyrrolo[2,3-b]pyridin-2-yl)-N-(1,1,1-trifluorobutan-2-yl)pyridine-3-sulfonamide] registered a melting point of 185 to 190 °C. Besides, the IC50 in data set [1] is below 500 nM.
`CC(C)(C)NS(=O)(=O)c1ccc(-c2c(C#N)c3cc(C4CC4)cnc3n2C2CCC2)cc1` [Cpd 125, N-tert-butyl-4-(3-cyano-1-cyclobutyl-5-cyclopropyl-1H-pyrrolo[2,3-b]pyridin-2-yl)benzenesulfonamide] had a melting point of 210 to 215 °C. Moreover, the IC50 in data set [1] was below 500 nM.
In the case of `C[C@@H](NS(=O)(=O)c1ccc(-c2c(C#N)c3cc(C4CC4)cnc3n2C2CCC2)nc1)C(F)(F)F` [Cpd 118, 6-(3-cyano-1-cyclobutyl-5-cyclopropyl-1H-pyrrolo[2,3-b]pyridin-2-yl)-N-[(2R)-1,1,1-trifluoropropan-2-yl]pyridine-3-sulfonamide], the melting point was in the range of 138 to 147 °C. The compound further gave an IC50 in data set [1] below 500 nM.
`COc1cc2c(C#N)c(-c3ccc(S(=O)(=O)N[C@@H](C)C(F)(F)F)cn3)n(C3CCC3)c2nc1C` [Cpd 242, 6-(3-cyano-1-cyclobutyl-5-methoxy-6-methyl-1H-pyrrolo[2,3-b]pyridin-2-yl)-N-[(2S)-1,1,1-trifluoropropan-2-yl]pyridine-3-sulfonamide] gave a melting point of 175 to 177 °C. This compound also had an IC50 in data set [1] below 500 nM.
The compound `Cc1cnc2c(c1)c(C#N)c(-c1ccc(S(=O)(=O)N[C@@H](C)C(F)(F)F)cn1)n2-c1ncc(Br)cn1` [Cpd 435, 6-[1-(5-bromopyrimidin-2-yl)-3-cyano-5-methyl-1H-pyrrolo[2,3-b]pyridin-2-yl]-N-[(2S)-1,1,1-trifluoropropan-2-yl]pyridine-3-sulfonamide] had a melting point of 169 to 171 °C. Further, in data set [1], the IC50 was in the range of 500 to 2000 nM.
The corresponding values for `Cc1ccc2c(C#N)c(-c3ncc(S(=O)(=O)NC4(C)CC4)cn3)n(C3CCC3)c2n1` [Cpd 144, 2-(3-cyano-1-cyclobutyl-6-methyl-1H-pyrrolo[2,3-b]pyridin-2-yl)-N-(1-methylcyclopropyl)pyrimidine-5-sulfonamide] are 224 to 232 °C and below 500 nM.
Take `CC1(NS(=O)(=O)c2ccc(-c3c(C#N)c4cc(C5CC5)cnc4n3C3CCC3)cc2)CC1` [Cpd 127, 4-(3-cyano-1-cyclobutyl-5-cyclopropyl-1H-pyrrolo[2,3-b]pyridin-2-yl)-N-(1-methylcyclopropyl)benzenesulfonamide]: the melting point is 152 to 161 °C. In data set [1], the IC50 is below 500 nM.
For `C[C@H](NS(=O)(=O)c1ccc(-c2c(C#N)c3cc(C(F)(F)F)cnc3n2C2CCC2)nc1)C(F)(F)F` [Cpd 227, 6-[3-cyano-1-cyclobutyl-5-(trifluoromethyl)-1H-pyrrolo[2,3-b]pyridin-2-yl]-N-[(2S)-1,1,1-trifluoropropan-2-yl]pyridine-3-sulfonamide], in that order: 183 to 185 °C and below 500 nM.
As to `Cc1cnc2c(C#N)c(-c3ccc(S(=O)(=O)N[C@@H](C)C(F)(F)F)cn3)n(-c3cccnc3)c2c1` [Cpd 466, 6-[3-cyano-6-methyl-1-(pyridin-3-yl)-1H-pyrrolo[3,2-b]pyridin-2-yl]-N-[(2S)-1,1,1-trifluoropropan-2-yl]pyridine-3-sulfonamide], the melting point is 278 to 279 °C. Moreover, the IC50 in data set [1] was below 500 nM.
`Cc1cc2c(cn1)c(C#N)c(-c1ccc(S(=O)(=O)N[C@H](C)C(F)(F)F)cn1)n2C1CCC1` [Cpd 29, 6-(3-cyano-1-cyclobutyl-6-methyl-1H-pyrrolo[3,2-c]pyridin-2-yl)-N-[(2R)-1,1,1-trifluoropropan-2-yl]pyridine-3-sulfonamide] gave a melting point of 176 to 178 °C. In data set [1], this compound returned an IC50 below 500 nM.
The corresponding values for `Cc1ccc2c(C#N)c(-c3ccc(S(=O)(=O)NC4(C(F)(F)F)CC4)cn3)n(C3CCC3)c2n1` [Cpd 94, 6-(3-cyano-1-cyclobutyl-6-methyl-1H-pyrrolo[2,3-b]pyridin-2-yl)-N-[1-(trifluoromethyl)cyclopropyl]pyridine-3-sulfonamide] are 230 to 236 °C and below 500 nM.
For the compound `CCc1cnc2c(c1)c(C#N)c(-c1ccc(S(=O)(=O)NC(C)(C)C)cc1)n2C1CCC1` [Cpd 185, N-tert-butyl-4-(3-cyano-1-cyclobutyl-5-ethyl-1H-pyrrolo[2,3-b]pyridin-2-yl)benzenesulfonamide], the melting point lay in the range of 190 to 196 °C. In addition, the IC50 in data set [1] is below 500 nM.
For `N#Cc1c(-c2ncc(S(=O)(=O)NC(CF)CF)cn2)n(C2CCC2)c2ncc(Cl)cc12` [Cpd 13, 2-(5-chloro-3-cyano-1-cyclobutyl-1H-pyrrolo[2,3-b]pyridin-2-yl)-N-(1,3-difluoropropan-2-yl)pyrimidine-5-sulfonamide], the melting point was in the range of 199 to 200 °C. This compound returned an IC50 in data set [1] below 500 nM.
`Cc1cnc2c(C#N)c(-c3ncc(S(=O)(=O)NC(C)C)cn3)n(C3CCC3)c2c1` [Cpd 214, 2-(3-cyano-1-cyclobutyl-6-methyl-1H-pyrrolo[3,2-b]pyridin-2-yl)-N-(propan-2-yl)pyrimidine-5-sulfonamide] yielded a melting point of 278 to 280 °C. The compound further returned an IC50 in data set [1] below 500 nM.
The corresponding values for `C[C@@H](NS(=O)(=O)c1ccc(-c2c(C#N)c3cc(C(F)(F)F)cnc3n2C2CCCCC2)cc1)C(F)(F)F` [Cpd 423, 4-[3-cyano-1-cyclohexyl-5-(trifluoromethyl)-1H-pyrrolo[2,3-b]pyridin-2-yl]-N-[(2R)-1,1,1-trifluoropropan-2-yl]benzenesulfonamide] are 185 to 187 °C and below 500 nM.
For `Cc1cnc2c(C#N)c(-c3ncc(S(=O)(=O)NC(CF)CF)cn3)n(C3CCCC3)c2c1` [Cpd 177, 2-(3-cyano-1-cyclopentyl-6-methyl-1H-pyrrolo[3,2-b]pyridin-2-yl)-N-(1,3-difluoropropan-2-yl)pyrimidine-5-sulfonamide], in that order: 256 to 258 °C and below 500 nM.
In turn, `CC(C)(C)NS(=O)(=O)c1ccc(-c2c(C#N)c3cc(F)cnc3n2-c2ccccc2)nc1` [Cpd 519, N-tert-butyl-6-(3-cyano-5-fluoro-1-phenyl-1H-pyrrolo[2,3-b]pyridin-2-yl)pyridine-3-sulfonamide] showed a melting point of 239.4 to 241.5 °C. This compound had an IC50 in data set [1] below 500 nM.
For `CCC(NS(=O)(=O)c1ccc(-c2c(C#N)c3cc(Cl)cnc3n2C2CCCC2)nc1)C(F)(F)F` (stereo not shown) [Cpd 260, 6-(5-chloro-3-cyano-1-cyclopentyl-1H-pyrrolo[2,3-b]pyridin-2-yl)-N-(1,1,1-trifluorobutan-2-yl)pyridine-3-sulfonamide], in that order: 170 to 174 °C and below 500 nM.
In turn, `CSc1cnc2c(c1)c(C(N)=O)c(-c1ccc(S(=O)(=O)NC(C)(C)C)cc1)n2C1CCC1` [Cpd 392, 2-[4-(tert-butylsulfamoyl)phenyl]-1-cyclobutyl-5-(methylsulfanyl)-1H-pyrrolo[2,3-b]pyridine-3-carboxamide] displayed a melting point of 224 to 226 °C. In addition, the IC50 in data set [1] is below 500 nM.
Compound `[2H]C(C)(C)NS(=O)(=O)c1ccc(-c2c(C#N)c3cc(C(F)(F)F)cnc3n2C2CCC2)nc1` [Cpd 513, 6-[3-cyano-1-cyclobutyl-5-(trifluoromethyl)-1H-pyrrolo[2,3-b]pyridin-2-yl]-N-[(2-deuterium)propan-2-yl]pyridine-3-sulfonamide] yielded a melting point of 191 to 193 °C. The compound also registered an IC50 in data set [1] below 500 nM.

The values are drawn from patent publication US9593108B2, “Compounds and methods for antiviral treatment” (PTC Therapeutics, Inc., priority 2009, dated 2017).
